Counter-ions that a name gives are not always drawn.
system: Dog PRP (platelet aggregation); experiment: In-vitro platelet aggregation in PRP (ADP-induced); type: cell-based; details: Canis lupus familiaris, adenosine 5'diphosphate (ADP) induced, by linear regression of dose response curve
Experimental: In-Vitro Platelet Aggregation in PRP
Healthy male or female dogs were fasted for 8 hours prior to drawing blood; then 30 ml whole blood was collected using a butterfly needle and 30 cc plastic syringe with 3 ml of 0.129M buffered sodium citrate (3.8%). The syringe was rotated carefully as blood was drawn to mix the citrate. Platelet-rich plasma (PRP) was prepared by centrifugation at 975× g for 3.17 minutes at room temperature, allowing the centrifuge to coast to a stop without braking. The PRP was removed from the blood with a plastic pipette and placed in a plastic capped, 50 ml Corning conical sterile centrifuge tube which was held at room temperature. Platelet poor plasma (PPP) was prepared by centrifuging the remaining blood at 2000× g for 15 minutes at room temperature allowing the centrifuge to coast to a stop without braking. The PRP was adjusted with PPP to a count of 2-3×10^8 platelets per ml. 400 μl of the PRP preparation and 50 μl of the compound to be tested or saline were preincubated for 1 minute at 37° C. in a BioData aggregometer (BioData, Horsham, Pa.). 50 μl of adenosine 5'diphosphate (ADP) (50 μm final concentration) was added to the cuvettes and the aggregation was monitored for 1 minute. All compounds are tested in duplicate. Results are calculated as follows:
Percent of control=[(maximal OD minus initial OD of compound) divided by (maximal OD minus initial OD of control saline)]×100. The % inhibition=100-(percent of control).
In Table A, two readings given in a single box indicate that two trials, rather than a single trial, were run for that particular compound in that particular assay.

| Compound | IC50 [µM] |
| --- | --- |
| N=C(N)c1ccc(CCCCNC(=O)[C@@H](CC(=O)O)NC(=O)OCc2ccccc2)cc1 [Compound 52513, 4-[[4-[4-(aminoiminomethyl)phenyl]butyl]amino]-4-oxo-3(R)-[[(Phenylmethoxy)carbonyl]amino]butanoic acid] | 3 |
| N=C(N)c1ccc(CCCCNC(=O)[C@@H](CCC(=O)O)NC(=O)OCc2ccccc2)cc1 [Compound 52809, 5-[[4-[4-(aminoiminomethyl)phenyl]butyl]amino]-5-oxo-4(R)-[[(phenylmethoxy)carbonyl]amino]pentanoic acid] | 1.8 |
| N=C(N)c1ccc(CCCCNC(=O)[C@H](CCC(=O)O)NC(=O)OCc2ccccc2)cc1 [Compound 52828, 5-[[4-[4-(aminoiminomethyl)phenyl]butyl]amino]-5-oxo-4(S)-[[(phenylmethoxy)carbonyl]amino]pentanoic acid] | 4.2 |
| Cc1ccc(S(=O)(=O)N[C@H](CC(=O)O)C(=O)NCCCCc2ccc(C(=N)N)cc2)cc1 [Compound 53010, 4-[[4-[4-(aminoiminomethyl)phenyl]butyl]amino]-4-oxo-3R-[[(4-methylphenyl)sulfonyl]amino]butanoic acid] | 6 |
| CCOC(=O)CC[C@@H](NC(=O)OCc1ccccc1)C(=O)NCCCCc1ccc(C(=N)N)cc1 [Compound 53033, ethyl 5-[[4-[4-(aminoiminomethyl)phenyl]butyl]amino]-5-oxo-4R-[[(phenylmethoxy)carbonyl]amino]pentanoate, monohydrochloride] | 7 |
| CS(=O)(=O)N[C@H](CCC(=O)O)C(=O)NCCCCc1ccc(C(=N)N)cc1 [Compound 53065, 5-[[4-[4-(aminoiminomethyl)phenyl]butyl]amino]-5-oxo-4(R)-methylsulfonylaminopentanoic acid] | 3.5 |
| N=C(N)c1ccc(CCCCNC(=O)[C@H](CCC(=O)O)NC(=O)CCc2ccccc2)cc1 [Compound 53112, 5-[[4-[4-(aminoiminomethyl)phenyl]butyl]amino]-5-oxo-4S-[1-oxo-3-phenylpropylamino]pentanoic acid] | 1.9 |
| N=C(N)c1ccc(CCCCNC(=O)[C@@H](CC(=O)O)NC(=O)CCc2ccccc2)cc1 [Compound 53143, 4-[[4-[4-(aminoiminomethyl)phenyl]butyl]amino]-4-oxo-3R-[(1-oxo-3-phenylpropyl)amino]butanoic acid] | 4.1 |
| N=C(N)c1ccc(C#CCCCNC(=O)[C@@H](CCC(=O)O)NC(=O)OCc2ccccc2)cc1 [Compound 53314, 5-[[5-[4-(aminoiminomethyl)phenyl]-4-pentynyl]amino]-5-oxo-4R-[[(phenylmethoxy)carbonyl]amino]pentanoic acid] | 2 |

From US5424334A, “Peptide mimetic compounds useful as platelet aggregation inhibitors” (G. D. Searle & Co., priority 1991, dated 1995)
